Experimental data from patent publication US20120329675A1, “Testing of Biofilm for Anti-microbial Agent Susceptibility” (priority 2009, published 2012).
Read-outs that look alike come from different tables or passages of the source.

Tests used:
[1] = test system: Pseudomonas aeruginosa (12 isolates from Cystic Fibrosis patients), planktonic bacteria; assay: Planktonic susceptibility to antibiotics and antibiotic combinations (challenge plate), 24 h exposure; format: cell-based
[2] = test system: Biofilms of Pseudomonas aeruginosa (12 isolates from Cystic Fibrosis patients); assay: Biofilm susceptibility to antibiotics and antibiotic combinations (peg lid device), 24 h exposure; format: cell-based; conditions: count apparently resistant isolates of 12
[3] = test system: P. aeruginosa ATCC 27853 biofilms; assay: Peg lid biofilm susceptibility testing, qualitative (MBEC) and quantitative (MBIC, MBCB) end points; format: cell-based, Pseudomonas aeruginosa
Method: Qualitative end points. According to CLSI standards % the MIC is defined as the lowest concentration of an antimicrobial agent that prevents visible growth in the challenge medium after a set period of incubation. By contrast, the MBEC is defined as the lowest concentration of antimicrobial agent that prevents visible growth from occurring in the recovery medium used to collect biofilm cells^17. The MBEC can be determined using the protocol presented here, and is measured after the recovery medium has been incubated for a suitable period of time, the length of which depends on the growth rate of the microorganism. Quantitative end points. […] This definition can be extended to both planktonic and biofilm cells and these end points will be denoted as the MBCP and MBCB, respectively. […] The technique presented here allows the MBCB or MLCB to be calculated. Another measure of biofilm susceptibility that has been proposed is the minimum biofilm inhibitory concentration (MBIC)^38,39. Here, the MBIC is defined as the lowest concentration of an antimicrobial at which there is no time-dependent increase in biofilm MVCC when an early exposure time is compared with a later exposure time. The MBIC thus corresponds to the intersecting point of two concentration-dependent killing curves, and therefore, it is possible to distinguish between biofilm resistance and tolerance on the basis of VCC (FIG. 8). (iii) Read the OD of the microtiter plate wells at 650 nm using the microtiter plate reader and visually inspect the wells for growth. […] (viii) Score the spot plates for growth by colony counting using the same approach described in Step 8. Determine the mean VCCs and SD for the broth culture using equations (2) and (3). Calculate biofilm mean log-killing and SD using equation (5). […] The biofilms were then exposed to gentamicin for either 2 or 20 hours; qualitative and quantitative determinations of biofilm cell survival were then performed. For ease of understanding, we focus on a single antibiotic.

[4] = 12 isolates from Cystic Fibrosis patients, 24 hours exposure, count apparently resistant isolates of 12

Molecule | Pseudomonas resistance to individual antibiotics and antibiotic combinations, Planktonic [1, 4] | Pseudomonas resistance to individual antibiotics and antibiotic combinations, Biofilm [2] | also measured
NCC[C@H](O)C(=O)N[C@@H]1C[C@H](N)[C@@H](O[C@H]2O[C@H](CN)[C@@H](O)[C@H](O)[C@H]2O)[C@H](O)[C@H]1O[C@H]1O[C@H](CO)[C@@H](O)[C@H](N)[C@H]1O [AK, Amikacin] | 8 | 11 | –
C[C@H]1[C@H](NC(=O)/C(=N\OC(C)(C)C(=O)O)c2csc(N)n2)C(=O)N1S(=O)(=O)O [AZTR, Aztreonam] | – | – | Pseudomonas resistance to individual antibiotics and antibiotic combinations, Planktonic [1]: 0
CC(C)(O/N=C(\C(=O)N[C@@H]1C(=O)N2C(C(=O)[O-])=C(C[n+]3ccccc3)CS[C@H]12)c1csc(N)n1)C(=O)O [CFTZ, Ceftazidime] | 3 | 12 | –
O=C(O)c1cn(C2CC2)c2cc(N3CCNCC3)c(F)cc2c1=O [CIPRO, Ciprofloxacin] | – | – | Pseudomonas resistance to individual antibiotics and antibiotic combinations, Planktonic [1]: 4
C[C@@H](O)[C@H]1C(=O)N2C(C(=O)O)=C(SCCN=CN)C[C@H]12 [IMP] | 12 | 12 | –
NC[C@H]1O[C@H](O[C@H]2[C@H](O)[C@@H](O[C@H]3O[C@H](CO)[C@@H](O)[C@H](N)[C@H]3O)[C@H](N)C[C@@H]2N)[C@H](N)C[C@@H]1O [TB, Tobramycin] | 3 | 12 | –
gentamicin | 8 | 12 | MBCB ([3]; 2 h exposure): > 512 µg/mL; MBCB ([3]; 20 h exposure): 512 µg/mL; MBEC ([3]; exposed for 2 or 20 hours, biofilms grown in LB broth): > 512 µg/mL; MBIC ([3]; from VCC, 2 h compared with 20 h exposure): 128 µg/mL
